# Measured values published in patent US20040072738A1, “Analogues of thiocoraline and be-22179” (priority 2000, published 2004).
# Bridge positions count the residues as written; N and C are the ends. Square brackets hold non-standard residues; d marks the D form. Peptide text beside a SMILES is read from it. I, II: the chains in the order shown. * marks the point of attachment. Quinaldoyl(3-OH) = O=C(c1nc2ccccc2cc1O)*; NMeC = CN[C@@H](CS)C(=O)O
# How the values were obtained:
# [1] = tested on: supercoiled ΦX174 DNA; assay: unwinding and rewinding of negatively supercoiled DNA, agarose gel electrophoresis; type: biochemical
# Excerpt: Confirmation that thiocoraline and BE-22179 bind to DNA with bisintercalation was derived from their ability to induce the unwinding of negatively supercoiled DNA. This was established by their ability to gradually decrease the agarose gel electrophoresis mobility of supercoiled ΦX174 DNA (unwinding) at increasing concentrations followed by a return to normal mobility (rewinding) at even higher concentrations. Under the conditions employed, echinomycin unwound ΦX174 DNA at a 0.044 agent/base pair ratio (FIG. 11 and FIG. 12). Thiocoraline completely unwound ΦX174 DNA at a higher 0.11 agent/base pair ratio, whereas BE-22179 required even higher concentrations producing the unwinding at an agent/base pair ratio of 1.1. […] Thus, the distinctions in 1 and 2 and echinomycin detected here appear to be related to the nature of the cyclic depsipeptide and not the structure of the chromophore.
# FIG. 8 is a table of comparative DNA binding properties. ^aCalf thymus DNA, KB=apparent binding constant determined by fluorescence quenching. The value in paren-theses is the agent/base pair ratio at saturated high-affinity binding and may be considered a measure of the selectivity of binding. ^bAgent/base pair ratio required to unwind negatively supercoiled FX174 DNA (form I to form II gel mobility, 0.9% agarose gel). ^cAgent/base pair ratio required to induce complete rewinding or positive super-coiling of FX174 DNA (form II to form I gel mobility, 0.9% agarose gel). ^dBinding constant established by footprinting at a 5′-CCGC site (FIG. 9).
# (A) Lane 1, untreated supercoiled FX174 DNA, 95% form 1 and 5% form II; lanes 2-8, thiocoraline-treated FX174 DNA; lanes 9-14, echinomycin-treated FX174 DNA. The [agent]-to-[base pair] ratios were 0.022 (lanes 2 and 9), 0.033 (lanes 3 and 10), 0.044 (lanes 4 and 11), 0.066 (lanes 5 and 12), 0.11 (lanes 6 and 13), 0.22 (lanes 7 and 14), and 0.44 (lane 8). (B) Lane 1, untreated supercoiled FX174 DNA, lanes 2-12, BE-22179-treated FX174 DNA. The [agent]-to-[base pair] ratios were 0.022, (lane 2), 0.033 (lane 3), 0.044 (lane 4), 0.066 (lane 5), 0.11 (lane 6), 0.22 (lane 7), and 0.33 (lane 8), 0.44 (lane 9), 0.66 (lane 10), 1.1 (lane 11), and 2.2 (lane 12). (C) Lane 1, untreated supercoiled FX174 DNA, 95% form 1 and 5% form II; lanes 2-8, thiocoraline analogue (27)-treated FX174 DNA. The [agent]-to-[base pair] ratios were 0.022 (lane 2), 0.033 (lane 3), 0.044 (lane 4), 0.066 (lane 5), 0.11 (lane 6), 0.22 (lane 7), and 0.44 (lane 8).
# [2] = tested on: duplex deoxyoligonucleotides, 5′-GCXXGC-3′ where XX=TA, AT, GC, CG; assay: fluorescence quenching titration with duplex deoxyoligonucleotides; details: high-affinity binding, listed as 1
# Excerpt: Consequently, the binding of 1 was examined with a set of four duplex deoxyoligonucleotides, 5′-GCXXGC-3′ where XX=TA, AT, GC, CG, incorporating the high affinity intercalation sites of the related bisintercalatiors echinomycin (5′-PuCGPy) (Corbaz, R., et al., Helv. Chim. Acta 1957, 40, 199; Keller-Schierlein, W., et al., Helv. Chim. Acta 1957, 40, 205; Keller-Schierlein, W., et al., Helv. Chim. Acta 1959, 42, 305; Martin, D. G., et al., J. Antibiot. 1975, 28, 332; Dell, A., et al., J. Am. Chem. Soc. 1975, 97, 2497), sandramycin (5′-CATG) (Boger, D. L., et al., Bioorg. Med. Chem. 1999, 7, 315; Boger, D. L., et al., Bioorg. Med. Chem. 1998, 6, 85), and the luzopeptins (5′-CATG) (Isolation: Konishi, M., et al., J. Antibiot. 1981, 34, 148; Structure and stereochemistry: Arnold, E., et al., J. Am. Chem. Soc. 1981, 103, 1243. Total synthesis (luzopeptins A-C): Boger, D. L., et al., J. Am. Chem. Soc. 1999, 121, 1098; Boger, D. L., et al., J. Am. Chem. Soc. […] The excitation and emission spectra for thiocoraline and BE-22179 were recorded in aqueous buffer (Tris-HCl, pH 7.4, 75 mM NaCl). To minimize fluorescence decrease due to dissolution or photobleaching, the solutions were stirred in 4-mL cuvettes in the dark with the minimum exposure to the excitation beam necessary to obtain a reading. […]
# [3] = tested on: w794 DNA; assay: DNase I and MTE footprinting; type: binding
# Experimental: FIG. 9 is an electrophoresis gel of DNase footprinting of echinomycin bound to w794 DNA. Lane 13, G, C and A Sanger sequencing reactions; lane 4, native DNA; lane 5, control DNA without treatment of DNase I; lanes 6-14; 0, 10, 20, 40, 60, 80, 100, 120, and […] echinomycin with DNase I treatment (1 min).
# FIG. 10 is an electrophoresis gel of DNase footprinting of thiocoraline bound to w794 DNA. Lane 1, native DNA; lane 2, control DNA without treatment of DNase I; lanes 3-6, G, C, A, and T Sanger sequencing reactions; lanes 7-26; 0, 10, 25, 50, 75, 100, 150, 200, 250, 300, 350, 400, 450, 500, 600, 700, 800, 900, 1000, and […] thiocoraline with DNase I treatment (1 min).
# [4] = solubility in aqueous buffer; type: physicochemical; details: aqueous Tris-HCl buffer; Tris-HCl pH 7.4, 75 mM NaCl; read-out: agent concentrations where the compounds are soluble
# [5] = tested on: DNA topoisomerase II; details: cited from earlier work
structure (smiles),measurement,setting,value
"CSC[C@H]1C(=O)SC[C@@H](NC(=O)c2nc3ccccc3cc2O)C(=O)NCC(=O)N(C)[C@H]2CSSC[C@@H](C(=O)N1C)N(C)C(=O)CNC(=O)[C@H](NC(=O)c1nc3ccccc3cc1O)CSC(=O)[C@H](CSC)N(C)C2=O [Thiocoraline] (I: {Quinaldoyl(3-OH)}-[dC]G[NMeC][NMeC](Me) / II: {Quinaldoyl(3-OH)}-[dC]G[NMeC][NMeC](Me); thioester I:1-II:C, I:C-II:1; disulfide I:3-II:3)",agent/base pair ratio required to unwind supercoiled DNA,[1]; form I to form II gel mobility,0.11 agent/base pair ratio
same,agent/base pair ratio for complete rewinding of supercoiled DNA,[1]; form II to form I gel mobility,0.44 agent/base pair ratio
same,binding constants for the four deoxyoligonucleotides,[2],3-7×10^6 M^−1
same,selectivity of DNA binding by footprinting,[3],failed to reveal a distinguishable selectivity
same,solubility,[4],1 to 10 µM
same,inhibition of DNA topoisomerase II,[5],does not inhibit
